Earlier results on one compound are cited in patent US20120283306A1, “MOUSE MODEL FOR AVM” (Georgia Health Sciences University, priority 2011, published 2012).

For this data set the following is noted: mouse, in vivo.

For the compound `Cc1ccc(-c2cc(C(F)(F)F)nn2-c2ccc(S(N)(=O)=O)cc2)cc1` [celecoxib], the tolerability in mice result is on record as “well tolerated”.
